EC50 and Maximum % activity data for 19 molecules are collected here from patent US10118916B2, “Modulators of cystic fibrosis transmembrane conductance regulator protein” (AbbVie S.à.r.l., priority 2016, dated 2018).

The target in this assay is T1, F508delCFTR (Homo sapiens, UniProt P13569, DEL508-508).
T1 construct: expressed in transfected cells; host or cells: CFBE41o- (human lung derived epithelial cell line), doxycycline-inducible
Kind of assay: Cell Surface Expression-Horse Radish Peroxidase (CSE-HRP) assay. Type of assay: cell-based. As to conditions: CFBE41o-F508delCFTR-HRP cells; for EC50: F508delCFTR cell surface expression, luminescence, 18-24 hours at 33° C., highest concentration 20 μM; for Maximum % activity: maximum at any tested concentration, normalized to on-plate positive control (3 μM). From the text:
Cell Surface Expression-Horse Radish Peroxidase (CSE-HRP) Assay:
A cellular assay for measuring the F508delCFTR cell surface expression after correction with test compounds was developed in human lung derived epithelial cell line (CFBE41o-) (Veit G et al, (2012) Mol Biol Cell. 23(21): 4188-4202). This was achieved by expressing the F508delCFTR mutation along with a horseradish peroxidase (HRP) in the fourth exofacial loop and then measuring the HRP activity using luminescence readout from these cells, CFBE41o-F508delCFTR-HRP, that were incubated overnight with the test corrector compounds. Briefly, for this primary assay, the CFBE41o-F508delCFTR-HRP cells were plated in 384-well plates (Greiner Bio-one; Cat 781080) at 4,000 cells/well along with 0.5 μg/mL doxycycline to induce the F508delCFTR-HRP expression and further incubated at 37° C., 5% CO2 for 72 hours. The test compounds were then added at the required concentrations and further incubated for 18-24 hours at 33° C. The highest concentration tested was 20 μM with an 8-point concentration response curve using a 3-fold dilution. Three replicate plates were run to determine one EC50. All plates contained negative controls (dimethyl sulfoxide, DMSO) and positive controls (3 μM of 3-[(2R,4R)-4-({[1-(2,2-difluoro-1,3-benzodioxol-5-yl)cyclopropyl]carbonyl}amino)-7-methoxy-3,4-dihydro-2H-chromen-2-yl]benzoic acid) as well as on-plate concentration response of the positive control. Post incubation, the plates were washed 5× times with Dulbecco's phosphate buffered saline (DPBS), followed by the addition of the HRP substrate, luminol (50 μL), and measuring the HRP activity using luminescence readout on EnVision® Multilabel Plate Reader (Perkin Elmer; product number 2104-0010). The raw counts from the experiment are analyzed using Accelrys® Assay Explorer v3.3.
Z′ greater than 0.5 was used as passing quality control criteria for the plates.
The Z′ is defined as: 1−[3*SDPositive Control+3*SDNegative Control/Absolute(MeanPositive Control−MeanNegative Control)] wherein “SD” is standard deviation.
The % activity measured at each of the 8 test concentrations of the test compound was normalized to the on-plate positive control using the following formula: % activity=[(test compound response−DMSO response)/(positive control response−DMSO response)]*100
The maximum % activity achieved for the test compound at any tested concentration is presented in Table 1 along with the EC50 calculated using the following general sigmoidal curve with variable Hill slope equation (described as Model 42 in the Accelrys® Assay Explorer v3.3 software): y=(a−d)/(1+(x/c)^b)+d
General sigmoidal curve with concentration, response, top, bottom, EC50 and Hill slope.
This model describes a sigmoidal curve with an adjustable baseline, a. The equation can be used to fit curves where response is either increasing or decreasing with respect to the independent variable, “x”. • “x” is a concentration of drug under test. • “y” is the response. • “a” is the maximum response, and “d” is the minimum response • “c” is the inflection point (EC50) for the curve. That is, “y” is halfway between the lower and upper asymptotes when x=c. • “b” is the slope-factor or Hill coefficient. The sign of b is positive when the response increases with increasing dose and is negative when the response decreases with increasing dose (inhibition).

T1 sequence (P13569 with tags, fused parts or gaps DEL508-508): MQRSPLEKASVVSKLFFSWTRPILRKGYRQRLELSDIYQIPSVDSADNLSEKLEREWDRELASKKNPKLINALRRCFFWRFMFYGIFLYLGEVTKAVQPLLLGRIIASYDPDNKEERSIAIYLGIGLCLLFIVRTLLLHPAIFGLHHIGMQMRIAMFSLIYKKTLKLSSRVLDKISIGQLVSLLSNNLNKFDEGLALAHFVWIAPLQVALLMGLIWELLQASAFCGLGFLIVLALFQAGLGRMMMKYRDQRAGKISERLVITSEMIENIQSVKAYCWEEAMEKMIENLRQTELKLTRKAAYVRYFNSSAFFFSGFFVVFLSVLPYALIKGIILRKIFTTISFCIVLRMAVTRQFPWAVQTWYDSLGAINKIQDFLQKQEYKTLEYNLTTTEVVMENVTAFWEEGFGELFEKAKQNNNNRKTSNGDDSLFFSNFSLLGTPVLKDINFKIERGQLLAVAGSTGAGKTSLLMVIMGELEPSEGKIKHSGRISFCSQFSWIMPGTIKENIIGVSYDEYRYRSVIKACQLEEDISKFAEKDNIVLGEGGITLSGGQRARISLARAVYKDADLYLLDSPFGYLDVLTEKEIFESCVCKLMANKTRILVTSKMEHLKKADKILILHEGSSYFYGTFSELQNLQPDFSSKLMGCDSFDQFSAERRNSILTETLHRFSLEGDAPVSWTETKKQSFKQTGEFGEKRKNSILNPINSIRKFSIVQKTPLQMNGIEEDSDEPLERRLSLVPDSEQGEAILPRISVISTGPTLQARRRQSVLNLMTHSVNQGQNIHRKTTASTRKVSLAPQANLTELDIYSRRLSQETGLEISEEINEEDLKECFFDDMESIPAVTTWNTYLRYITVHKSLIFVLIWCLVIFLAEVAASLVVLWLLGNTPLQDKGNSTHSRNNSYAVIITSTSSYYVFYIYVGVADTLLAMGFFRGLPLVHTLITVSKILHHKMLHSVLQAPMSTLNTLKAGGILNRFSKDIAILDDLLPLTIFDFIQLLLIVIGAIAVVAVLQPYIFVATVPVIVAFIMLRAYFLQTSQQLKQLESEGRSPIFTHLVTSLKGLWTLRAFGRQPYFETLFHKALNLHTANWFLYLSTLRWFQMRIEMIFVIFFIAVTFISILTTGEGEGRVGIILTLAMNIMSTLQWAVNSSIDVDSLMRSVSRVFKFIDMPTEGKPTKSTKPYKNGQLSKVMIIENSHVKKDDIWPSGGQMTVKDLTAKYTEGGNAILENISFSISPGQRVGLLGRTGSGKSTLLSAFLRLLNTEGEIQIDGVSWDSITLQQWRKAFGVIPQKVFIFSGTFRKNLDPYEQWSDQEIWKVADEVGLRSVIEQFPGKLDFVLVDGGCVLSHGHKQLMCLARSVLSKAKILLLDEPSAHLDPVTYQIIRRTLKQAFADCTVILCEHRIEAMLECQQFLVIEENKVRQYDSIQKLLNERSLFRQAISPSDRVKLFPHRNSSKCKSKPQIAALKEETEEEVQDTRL

Take `COc1ccc2c(c1)O[C@@H](c1cccc(C(=O)O)c1)C[C@H]2NC(=O)C1(C)CCc2cc(Cl)ccc21` (stereo partly drawn) [Example 36, 3-{(2R,4R)-4-[(5-chloro-1-methyl-2,3-dihydro-1H-indene-1-carbonyl)amino]-7-methoxy-3,4-dihydro-2H-1-benzopyran-2-yl}benzoic acid]: the EC50 – broadly, the midpoint of the concentration-response curve – came to 670 nM and the Maximum % activity is reported as 31.4%.

`COc1ccc2c(c1)O[C@@H](c1cccc(C(=O)O)c1)C[C@H]2NC(=O)C(C)(C)c1ccc(OCC(C)C)cc1` [Example 37, 3-[(2R,4R)-7-methoxy-4-{2-methyl-2-[4-(2-methylpropoxy)phenyl]propanamido}-3,4-dihydro-2H-1-benzopyran-2-yl]benzoic acid]: the EC50 was more than 20000 nM and the Maximum % activity was 6.1%.

Molecule `COc1ccc2c(c1)O[C@@H](c1cccc(C(=O)O)c1)C[C@H]2NC(=O)C(C)(C)c1ccc2c(c1)OCCO2` [Example 39, 3-{(2R,4R)-4-[2-(2,3-dihydro-1,4-benzodioxin-6-yl)-2-methylpropanamido]-7-methoxy-3,4-dihydro-2H-1-benzopyran-2-yl}benzoic acid] yielded an EC50 of 870 nM and a Maximum % activity of 41.7%.

For the molecule `COc1ccc2c(c1)O[C@@H](c1cccc(C(=O)O)c1)C[C@H]2NC(=O)C(C)(C)c1ccc(OC(F)(F)F)cc1` [Example 40, 3-[(2R,4R)-7-methoxy-4-{2-methyl-2-[4-(trifluoromethoxy)phenyl]propanamido}-3,4-dihydro-2H-1-benzopyran-2-yl]benzoic acid], the EC50 came to 1700 nM and the Maximum % activity was determined as 81.0%.

For the molecule `COc1ccc2c(c1)O[C@@H](c1cccc(C(=O)O)c1)C[C@H]2NC(=O)C1(c2ccc(OC(F)(F)F)cc2)CC1` [Example 41, 3-[(2R,4R)-7-methoxy-4-({1-[4-(trifluoromethoxy)phenyl]cyclopropane-1-carbonyl}amino)-3,4-dihydro-2H-1-benzopyran-2-yl]benzoic acid], a half-maximal effect (EC50) was put at 1670 nM and the Maximum % activity is on record as 62.2%.

Turning to `COc1ccc2c(c1)O[C@@H](c1cccc(C(=O)O)c1)C[C@H]2NC(=O)C1(c2ccc(Cl)cc2)CC1` [Example 42, 3-[(2R,4R)-4-{[1-(4-chlorophenyl)cyclopropane-1-carbonyl]amino}-7-methoxy-3,4-dihydro-2H-1-benzopyran-2-yl]benzoic acid], the midpoint of the response, the EC50, lay at 280 nM and the Maximum % activity is on record as 28.3%.

For the molecule `COc1ccc2c(c1)O[C@@H](c1cccc(C(=O)O)c1)C[C@H]2NC(=O)C1(c2ccc(Br)cc2)CC1` [Example 43, 3-[(2R,4R)-4-{[1-(4-bromophenyl)cyclopropane-1-carbonyl]amino}-7-methoxy-3,4-dihydro-2H-1-benzopyran-2-yl]benzoic acid], the EC50 came out at 280 nM and the Maximum % activity was 39.1%.

Consider `COc1ccc(C2(C(=O)N[C@@H]3C[C@H](c4cccc(C(=O)O)c4)Oc4cc(OC)ccc43)CC2)cc1` [Example 44, 3-[(2R,4R)-7-methoxy-4-{[1-(4-methoxyphenyl)cyclopropane-1-carbonyl]amino}-3,4-dihydro-2H-1-benzopyran-2-yl]benzoic acid], for which the midpoint of the response, the EC50, lay at 100 nM and the Maximum % activity was 35.3%.

In the case of `COc1ccc2c(c1)O[C@@H](c1cccc(C(=O)O)c1)C[C@H]2NC(=O)C(C)(C)Oc1ccc(Cl)cc1` [Example 45, 3-{(2R,4R)-4-[2-(4-chlorophenoxy)-2-methylpropanamido]-7-methoxy-3,4-dihydro-2H-1-benzopyran-2-yl}benzoic acid], the concentration for a half-maximal effect (EC50) is more than 20000 nM and the Maximum % activity came out at 15.3%.

`COc1cccc2c1[C@@](C)(C(=O)N[C@@H]1C[C@H](c3cccc(C(=O)O)c3)Oc3ccccc31)CC2` [Example 46, 3-[(2R,4R)-4-{[(1S)-7-methoxy-1-methyl-2,3-dihydro-1H-indene-1-carbonyl]amino}-3,4-dihydro-2H-1-benzopyran-2-yl]benzoic acid] yielded an EC50 of more than 20000 nM and a Maximum % activity of 1.1%.

Molecule `COc1ccc2c(c1)[C@@](C)(C(=O)N[C@@H]1C[C@H](c3cccc(C(=O)O)c3)Oc3ccccc31)CC2` [Example 47, 3-[(2R,4R)-4-{[(1S)-6-methoxy-1-methyl-2,3-dihydro-1H-indene-1-carbonyl]amino}-3,4-dihydro-2H-1-benzopyran-2-yl]benzoic acid] returned an EC50 of 1060 nM and a Maximum % activity of 38.2%.

The molecule `COc1ccc2c(c1)[C@](C)(C(=O)N[C@@H]1C[C@H](c3cccc(C(=O)O)c3)Oc3ccccc31)CC2` [Example 48, 3-[(2R,4R)-4-{[(1R)-6-methoxy-1-methyl-2,3-dihydro-1H-indene-1-carbonyl]amino}-3,4-dihydro-2H-1-benzopyran-2-yl]benzoic acid] displayed an EC50 of more than 20000 nM and a Maximum % activity of 4.5%.

Take `Cc1ccccc1C(C)(C)C(=O)N[C@@H]1C[C@H](c2cccc(C(=O)O)c2)Oc2ccccc21` [Example 49, 3-{(2R,4R)-4-[2-methyl-2-(2-methylphenyl)propanamido]-3,4-dihydro-2H-1-benzopyran-2-yl}benzoic acid]: the EC50 was more than 20000 nM and the Maximum % activity was found to be 3.5%.

As to `COc1cccc2c1[C@](C)(C(=O)N[C@@H]1C[C@H](c3cccc(C(=O)O)c3)Oc3ccccc31)CC2` [Example 50, 3-[(2R,4R)-4-{[(1R)-7-methoxy-1-methyl-2,3-dihydro-1H-indene-1-carbonyl]amino}-3,4-dihydro-2H-1-benzopyran-2-yl]benzoic acid], the EC50 was more than 20000 nM and the Maximum % activity was 4.9%.

Turning to `CC(C)(C(=O)N[C@@H]1C[C@H](c2cccc(C(=O)O)c2)Oc2ccccc21)c1ccc(C(F)(F)F)cc1` [Example 51, 3-[(2R,4R)-4-{2-methyl-2-[4-(trifluoromethyl)phenyl]propanamido}-3,4-dihydro-2H-1-benzopyran-2-yl]benzoic acid], the EC50 was 2030 nM and the Maximum % activity came to 57.9%.

Take `CC(C)(C(=O)N[C@@H]1C[C@H](c2cccc(C(=O)O)c2)Oc2ccccc21)c1ccc(Cl)cc1Cl` [Example 52, 3-{(2R,4R)-4-[2-(2,4-dichlorophenyl)-2-methylpropanamido]-3,4-dihydro-2H-1-benzopyran-2-yl}benzoic acid]: the EC50 is more than 20000 nM and the Maximum % activity amounted to 1.8%.

`C[C@@]1(C(=O)N[C@@H]2C[C@H](c3cccc(C(=O)O)c3)Oc3ccccc32)CCc2ccc(Cl)cc21` [Example 53, 3-[(2R,4R)-4-{[(1R)-6-chloro-1-methyl-2,3-dihydro-1H-indene-1-carbonyl]amino}-3,4-dihydro-2H-1-benzopyran-2-yl]benzoic acid]: the EC50 is more than 20000 nM and the Maximum % activity turned out to be 1.2%.

`C[C@]1(C(=O)N[C@@H]2C[C@H](c3cccc(C(=O)O)c3)Oc3ccccc32)CCc2ccc(Cl)cc21` [Example 54, 3-[(2R,4R)-4-{[(1S)-6-chloro-1-methyl-2,3-dihydro-1H-indene-1-carbonyl]amino}-3,4-dihydro-2H-1-benzopyran-2-yl]benzoic acid] gave an EC50 of more than 20000 nM and a Maximum % activity of 10.4%.

`CC1(C(=O)N[C@@H]2C[C@H](c3cccc(C(=O)O)c3)Oc3ccccc32)CCc2cc(OC(F)(F)F)ccc21` (stereo partly drawn) [Example 55, 3-[(2R,4R)-4-{[1-methyl-5-(trifluoromethoxy)-2,3-dihydro-1H-indene-1-carbonyl]amino}-3,4-dihydro-2H-1-benzopyran-2-yl]benzoic acid] showed an EC50 of 2710 nM and a Maximum % activity of 49.9%.
